Assay results reported in publication PMC3748009, “Novel Small-Molecule AMP-Activated Protein Kinase Allosteric Activator with Beneficial Effects in db/db Mice” (PLoS ONE, 2013).
pEC50: −log10 of the molar value.

Key:
[1] = biological target: AMPK α1β1γ1 (Homo sapiens, UniProt P54619+Q13131+Q9Y478); test: Scintillation proximity assay (SPA), AMPK activation; assay type: biochemical; set-up: made in house
Protocol: (§1) Before the SPA assay, 200 nmol/l recombinant AMPK protein (α1β1γ1, α2β1γ1, α1β2γ1, α2β2γ1, α1(1–394), α1(1–335), α1(1–312)) was constructed, expressed, purified and fully phosphorylated as described previously. The SPA reactions were performed in 96-well plates in a final volume of 50 µl containing 20 mmol/l Tris-HCl, pH 7.5, 5 mmol/l MgCl2, 1 mmol/l DTT, 2 µmol/l biotin-SAMS, 2 µmol/l ATP and 7.4×10^3 Bq/well [γ-^33P]ATP. The reactions were initiated by the addition of 50 nmol/l recombinant AMPK protein to the reaction solutions, followed by incubation at 30°C for 2 hr. The reactions were then terminated by the addition of 40 µl of stop solution containing 80 µg streptavidin-coated SPA beads per well, 50 mmol/l EDTA and 0.1% Triton X-100 in PBS, pH 7.5, followed by incubation for 1 hr. Finally, 160 µl of suspension solution containing 2.4 mol/l CsCl, 50 mmol/l EDTA and 0.1% Triton X-100 in PBS, pH 7.5, was added to the reaction solution to suspend the SPA beads completely. The SPA signals were measured in a Wallac Microbeta plate counter (PerkinElmer, Waltham, MA, USA) 30 min later.

[2] = biological target: recombinant AMPK α1β1γ1 (Homo sapiens, UniProt Q13131); test: as above; assay type: biochemical; set-up: made in house
Protocol: as §1

[3] = biological target: AMPK α1(1–394) (Homo sapiens, UniProt Q13131); test: Dephosphorylation of AMPK α1 truncation by PP2Cα; assay type: biochemical; set-up: dephosphorylation by PP2Cα on AMPK α1(1–394) and α1(1–335); conditions: Fig. S1A
Protocol: (§2) The dephosphorylation of AMPK was performed as described previously, [24].

[4] = biological target: AMPK α1(1–335) (Homo sapiens, UniProt Q13131); test: Dephosphorylation of AMPK α1 truncation by PP2Cα; assay type: biochemical; set-up: dephosphorylation by PP2Cα on AMPK α1(1–394) and α1(1–335); conditions: Fig. S1B
Protocol: as §2

[5] = test system: rat primary hepatocytes; test: AMPK and ACC phosphorylation in rat primary hepatocytes; assay type: cell-based; conditions: 3 hr
Source text: (§3) These assays were described previously, [25].

[6] = test system: rat primary hepatocytes; test: Glucose production (output) in rat primary hepatocytes; assay type: cell-based; conditions: 5 hr, concentration-dependent
Source text: as §3

[7] = test system: L6 myotubes; test: Mitochondrial membrane potential in L6 myotubes; assay type: cell-based; conditions: various concentrations, 3 hr, vs DMSO
Source text: as §3

[8] = test system: C57BKS db/db mice; test: 5-week chronic study in db/db mice; assay type: in vivo, mouse
Source text: db/db (Jackson Laboratory, BarHarbor, ME, USA) mice were bred at the Shanghai Institute of Materia Medica (Chinese Academy of Sciences, Shanghai, People's Republic of China).The animals were maintained under a 12 hr light-dark cycle with free access to water and food. Animal experiments were approved by the Animal Care and Use Committee, Shanghai Institute of Materia Medica. At 8 weeks of age, male db/db mice were randomly assigned to the various treatment groups by body weight and glucose levels (n = 6-8). The treatment groups for the 5-week chronic study were as follows: vehicle (0.5% methylcellulose), ZLN024 (15 mg/kg) and metformin (250 mg/kg). The treatments were orally administered once daily. The body weights and food intake were measured daily. After 5 weeks of treatment, the mice were killed after a final dose, and the tissues were collected for further analysis. This assay was described previously. For details on primer sequences, see Legend for Table S1. These assays were described previously, [25].

[9] = test system: rat primary hepatocytes; test: Fatty acid synthesis ([14C] acetate incorporation) in rat primary hepatocytes; assay type: cell-based; conditions: insulin 10 nmol/l, 24 hr exposure
Protocol: Fatty acid synthesis in rat primary hepatocytes was assayed by measuring [^14C] acetate incorporation into lipids. Rat hepatocytes were treated for 20 hr with ZLN024 at the concentrations described in FBS-free DMEM with or without 10 nmol/l insulin, followed by 4 hr incubation in fresh medium containing 0.1 µCi/ml sodium [^14C] acetate (3.7×103 Bq/ml). Thereafter, cells were washed three times by ice-cold PBS and analyzed as previously described, [22].

[10] = test system: L6 myotubes; test: Glucose uptake in L6 myotubes; assay type: cell-based; conditions: 3 hr, concentration-dependent
Source text: as §3

[11] = ZLN024 15 mg/kg/day by gavage, 5 weeks

AMPK α1(1–335), sequence (Q13131 10-344): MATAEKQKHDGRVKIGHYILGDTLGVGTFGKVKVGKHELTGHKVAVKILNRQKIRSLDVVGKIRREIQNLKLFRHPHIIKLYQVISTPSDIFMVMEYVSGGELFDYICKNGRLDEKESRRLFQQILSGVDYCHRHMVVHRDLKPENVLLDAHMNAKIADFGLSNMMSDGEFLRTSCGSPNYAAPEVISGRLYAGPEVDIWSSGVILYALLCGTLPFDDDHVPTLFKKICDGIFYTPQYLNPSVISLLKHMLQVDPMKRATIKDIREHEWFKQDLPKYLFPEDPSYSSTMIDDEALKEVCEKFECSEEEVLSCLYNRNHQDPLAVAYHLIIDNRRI
AMPK α1(1–394), sequence (Q13131 10-403): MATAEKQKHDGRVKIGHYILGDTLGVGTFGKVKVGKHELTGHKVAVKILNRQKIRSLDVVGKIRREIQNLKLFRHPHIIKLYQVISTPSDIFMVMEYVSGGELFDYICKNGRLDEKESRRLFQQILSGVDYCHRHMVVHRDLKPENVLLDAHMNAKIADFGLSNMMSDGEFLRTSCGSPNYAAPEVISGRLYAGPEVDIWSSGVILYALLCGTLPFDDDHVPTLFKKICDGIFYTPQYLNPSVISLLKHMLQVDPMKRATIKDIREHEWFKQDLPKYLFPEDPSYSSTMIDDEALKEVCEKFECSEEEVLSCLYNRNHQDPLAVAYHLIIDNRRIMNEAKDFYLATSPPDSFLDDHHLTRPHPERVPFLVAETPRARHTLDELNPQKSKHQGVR
recombinant AMPK α1β1γ1, sequence (Q13131 10-559 limits assumed): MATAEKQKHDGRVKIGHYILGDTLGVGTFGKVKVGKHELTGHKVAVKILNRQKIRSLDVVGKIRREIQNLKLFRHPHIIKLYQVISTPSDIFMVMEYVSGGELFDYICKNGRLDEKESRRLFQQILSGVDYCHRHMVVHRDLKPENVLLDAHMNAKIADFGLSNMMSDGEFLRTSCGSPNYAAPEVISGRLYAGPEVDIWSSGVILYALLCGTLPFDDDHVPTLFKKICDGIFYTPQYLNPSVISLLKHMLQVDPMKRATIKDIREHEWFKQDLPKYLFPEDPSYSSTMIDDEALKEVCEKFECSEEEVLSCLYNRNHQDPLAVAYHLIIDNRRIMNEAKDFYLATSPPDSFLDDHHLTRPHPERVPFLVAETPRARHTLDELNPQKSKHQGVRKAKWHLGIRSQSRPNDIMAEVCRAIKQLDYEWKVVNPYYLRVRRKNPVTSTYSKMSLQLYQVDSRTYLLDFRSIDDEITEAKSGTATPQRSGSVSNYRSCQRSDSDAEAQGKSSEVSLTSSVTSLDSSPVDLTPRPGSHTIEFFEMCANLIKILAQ
recombinant AMPK α1β1γ1, sequence (Q9Y478 whole entry partner): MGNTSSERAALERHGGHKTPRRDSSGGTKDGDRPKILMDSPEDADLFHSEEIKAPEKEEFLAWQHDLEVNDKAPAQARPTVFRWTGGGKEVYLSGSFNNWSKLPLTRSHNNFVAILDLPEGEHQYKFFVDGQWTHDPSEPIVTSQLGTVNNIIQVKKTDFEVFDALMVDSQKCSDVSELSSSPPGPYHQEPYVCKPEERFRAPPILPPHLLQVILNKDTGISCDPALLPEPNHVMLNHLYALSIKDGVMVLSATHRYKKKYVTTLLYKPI
recombinant AMPK α1β1γ1, sequence (P54619 whole entry partner): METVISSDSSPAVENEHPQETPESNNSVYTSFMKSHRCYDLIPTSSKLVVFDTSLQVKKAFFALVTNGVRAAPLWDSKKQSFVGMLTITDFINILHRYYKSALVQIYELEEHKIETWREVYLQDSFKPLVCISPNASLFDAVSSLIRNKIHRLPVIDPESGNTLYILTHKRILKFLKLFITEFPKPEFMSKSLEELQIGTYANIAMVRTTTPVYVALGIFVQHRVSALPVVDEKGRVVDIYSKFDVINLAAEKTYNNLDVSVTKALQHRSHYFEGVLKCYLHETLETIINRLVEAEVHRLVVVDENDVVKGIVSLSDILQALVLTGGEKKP
AMPK α1β1γ1, sequence (Q13131 10-559 limits assumed): as the sequence (Q13131 10-559 limits assumed) above
AMPK α1β1γ1, sequence (Q9Y478 whole entry partner): as the sequence (Q9Y478 whole entry partner) above
AMPK α1β1γ1, sequence (P54619 whole entry partner): as the sequence (P54619 whole entry partner) above

With `Cc1ccc(OCCSc2ncccn2)c(Br)c1` [ZLN024] as the molecule, how does the pEC50 [1] read?
The pEC50 was 6.38.

And the “activation of α1β1γ1 activity” value [2]?
Its value is 1.5 fold.

What about the “effect on dephosphorylation of AMPK α1(1–394) by PP2Cα” value [3] of the same molecule?
The value was “did not affect the dephosphorylation”.

What about the “effect on dephosphorylation of AMPK α1(1–335) by PP2Cα” value [4] of the same molecule?
The value was “did not affect the dephosphorylation”.

What about the “phosphorylation of ACC” value [5] of the same molecule?
The value was “obviously increased”.

What about the “phosphorylation of AMPK” value [5] of the same molecule?
Its value is “slightly activated”.

And the glucose production [6]?
Its glucose production is “obviously repressed”.

What about the “mitochondrial membrane potential (MMP)” value [7] of the same molecule?
Its value is “not affected”.

What about the “ACC phosphorylation in abdominal muscle and liver tissue” value ([8]; 15 mg/kg/day, 5 weeks) of the same molecule?
The value was “increased”.

And the “AMPK phosphorylation in abdominal muscle and liver tissue” value ([8]; 15 mg/kg/day, 5 weeks)?
Its value is “not affected”.

And the “body weight compared with the vehicle group” value [8, 11]?
Its value is “no significant alteration”.

What about the “food intake compared with the vehicle group” value [8, 11] of the same molecule?
The value was “no significant alteration”.

And the “reduction of fasting blood glucose” value ([8]; ZLN024 15 mg/kg/day, 4 weeks, fasted 6 hr, not significant with ANOVA)?
The value was 15%.

And the “abdominal muscle expression of fatty acid oxidation genes CPT-1, MCAD and LCAD” value ([8]; ZLN024 15 mg/kg/day, 5 weeks)?
The value was “significantly upregulated”.

What about the “abdominal muscle expression of mitochondrial biogenesis genes PGC-1α, cyto-c and ATPase” value ([8]; ZLN024 15 mg/kg/day, 5 weeks) of the same molecule?
The value was “upregulated”.

And the “decrease of liver total cholesterol levels” value ([8]; ZLN024 15 mg/kg/day, 5 weeks)?
Its value is 20%.

What about the “liver expression of PEPCK” value ([8]; ZLN024 15 mg/kg/day, 5 weeks) of the same molecule?
The value was “remained unchanged”.

What about the “liver expression of anabolic genes FAS, mtGPAT and G6Pase” value ([8]; ZLN024 15 mg/kg/day, 5 weeks) of the same molecule?
The value was “significantly reduced”.

And the “liver expression of catabolic genes CPT1, LCAD, PDK4 and AOX” value ([8]; ZLN024 15 mg/kg/day, 5 weeks)?
Its value is “mildly increased”.

And the “liver/body weight reduction vs vehicle” value ([8]; ZLN024 15 mg/kg/day, 5 weeks)?
The value was 9%.

And the “reduction of liver triacylglycerol levels” value ([8]; ZLN024 15 mg/kg/day, 5 weeks)?
Its value is “approximately 45%”.

And the “liver/body weight (wt/wt)” value ([8]; ZLN024 15 mg/kg/day, 5 weeks (vehicle 5.3%))?
Its value is 4.8%.

What about the “reduction in glucose tolerance AUC” value ([8]; ZLN024 15 mg/kg/day, after 4 weeks, i.p. glucose load 1.5 g/kg) of the same molecule?
The value was “approximately 15%”.

What about the “insulin stimulated synthesis of fatty acid” value [9] of the same molecule?
Its value is “significantly decreased”.

And the glucose uptake [10]?
The glucose uptake was “stimulated”.
